Like-named read-outs stand apart in the source and are kept apart here.
Assays:
[1] = system: docetaxel-induced neutropenia; assay: Grade 4 neutropenia in patients on docetaxel with or without plinabulin; format: in vivo, human; settings: for proportion of patients with Grade 4 neutropenia: Cycle 1, Day 8, ANC<0.5×10^9/L, docetaxel alone vs plinabulin added to docetaxel, p<0.0003
[2] = system: neutropenia caused by chemotherapies; assay: Animal model studies of chemotherapy-caused neutropenia; format: in vivo; settings: animal models; docetaxel, cisplatin, adriamycin, cyclosphosphamide, topotecan, gemcitabine
Text: Clinical complications of neutropenia (febrile neutropenia, infections, sepsis, and mortality) occur with Grade 4 Neutropenia, as compared to with Grade 2 or 3 Neutropenia. For regulatory approval, the FDA and Health Authorities focus on Grade 4 Neutropenia data.

[3] = system: NSCLC patients with a measurable lesion; settings: human, in vivo
[4] = system: docetaxel-induced neutropenia; assay: Randomized double blind study, plinabulin vs pegfilgrastim in solid tumor patients receiving docetaxel (Example 4); format: in vivo, human; settings: for neutrophil count through time (FIG. 1): after docetaxel 75 mg/m^2
Method: A randomized, double blind study to evaluate duration of severe neutropenia with plinabulin versus pegfilgrastim in patients with solid tumors receiving docetaxel myelosuppressive chemotherapy was performed. Patients were randomly assigned to the following arms (with the respective sample sizes): Arm 1: Docetaxel (75 mg/m^2)+Pegfilgrastim (6 mg) (n=14); Arm 2: Docetaxel (75 mg/m^2)+Plinabulin (20 mg/m^2) (n=14); Arm 3: Docetaxel (75 mg/m^2)+Plinabulin (10 mg/m^2) (n=14); and Arm 4: Docetaxel (75 mg/m^2)+Plinabulin (5 mg/m^2) (n=13).

[5] = Safety / product profile of plinabulin vs G-CSF in patients (bone pain, hospitalization, hypertension, laboratory parameters); format: in vivo, human
[6] = system: chemotherapy-induced febrile/severe neutropenia; settings: cited from earlier work
CYP3A4 = CYP3A4 (Homo sapiens, UniProt P08684); settings: with the use of strong CYP3A4 inhibitors; cited from earlier work
[7] = system: chemotherapy-induced febrile/severe neutropenia; assay: Reported FN frequency and DSN with docetaxel or TAC chemotherapy, with or without G-CSF; format: in vivo, human; settings: docetaxel monotherapy 75 mg/m^2 without G-CSF
Method: The frequency of FN with docetaxel monotherapy (100 mg/m^2)+G-CSF is reported to be 1% in Cycle 1. […] 2002; 20:727-731.
The FN percentage is about 12.7% with 75 mg/m^2 docetaxel. Based on this range of FN and the relationship established between FN and DSN, the assumption is that, with docetaxel monotherapy at a dose of 75 mg/m^2 without G-CSF, the median DSN is estimated to be 4-5 days.
The margin can be selected based on the data that Taxotere/Adriamycin/cyclophosphamide (TAC) chemotherapy can induce a median DSN of 7 days in breast cancer patients receiving no G-CSF treatment, while G-CSF treatment reduces the mean DSN for this chemotherapy to 1.4 days (95% CI: 1.07-1.69) as shown in pegfilgrastim Study. Based on this a non-inferiority limit of 1 day is derived.

[8] = system: docetaxel-induced severe neutropenia; assay: Calculated DSN from Day 8 neutrophil nadir values (simulation, Deming regression); format: in vivo, human; settings: from observed Day 8 neutrophil (nadir) values, Cycle 1
Text: DSN is obtained using the following methods (described below) for generation of ANC data and the observed neutrophil values on Day 8/Cycle 1 in the Phase 2 study. […] The study may assume that the shape of the time/neutrophil recovery curve in plinabulin-treated patients is indistinguishable from the time/neutrophil recovery curve for filgrastim and its biosimilars.
Mean values and standard deviations of ANC during the 21-day follow-up period can be obtained from the reference. […] The simulation would then also generate the projected number of days with severe neutropenia, (i.e., the DSN).

[9] = most common adverse reactions; cited from earlier work
[10] = G-CSF, Table 1; cited from earlier work
[11] = Plinabulin 5 mg/m2 + docetaxel 75 mg/m^2
[12] = Plinabulin 10 mg/m2 + docetaxel 75 mg/m^2
[13] = Plinabulin 20 mg/m2 + docetaxel 75 mg/m^2
[14] = Neulasta 6 mg + docetaxel 75 mg/m^2

Chain of CYP3A4 (P08684 whole entry): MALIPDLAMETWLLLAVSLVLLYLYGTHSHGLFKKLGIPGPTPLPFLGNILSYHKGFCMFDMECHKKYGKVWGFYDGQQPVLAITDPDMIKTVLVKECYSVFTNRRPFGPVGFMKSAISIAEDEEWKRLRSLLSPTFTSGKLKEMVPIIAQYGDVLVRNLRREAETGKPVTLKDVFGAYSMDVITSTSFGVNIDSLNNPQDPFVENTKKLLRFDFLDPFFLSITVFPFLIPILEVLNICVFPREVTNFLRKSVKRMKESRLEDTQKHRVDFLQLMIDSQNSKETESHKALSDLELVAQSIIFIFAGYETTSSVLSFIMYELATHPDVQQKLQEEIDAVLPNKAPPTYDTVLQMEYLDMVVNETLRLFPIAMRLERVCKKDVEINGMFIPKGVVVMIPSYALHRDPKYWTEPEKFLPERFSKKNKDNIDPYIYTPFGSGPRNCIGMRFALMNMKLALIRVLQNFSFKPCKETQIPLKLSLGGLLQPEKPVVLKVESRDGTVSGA

For CC(C)(C)c1[nH]cnc1/C=c1\[nH]c(=O)/c(=C/c2ccccc2)[nH]c1=O [Plinabulin, (3Z,6Z)-3-Benzylidene-6-{[5-(2-methyl-2-propanyl)-1H-imidazol-4-yl]methylene}-2,5-piperazinedione], the “proportion of patients with Grade 4 neutropenia” value [1] was 4.6%, the “clinical sequelae associated with docetaxel-induced neutropenia (sepsis, infections, hospitalizations, docetaxel dose reductions, G-CSF use)” value ([1]; human, in vivo) was “reduced” and the “prevention of neutropenia caused by chemotherapies” value [2] was “prevent neutropenia”. The “Immune-Related AEs (IR-AEs)” value [3] was “without increasing Immune-Related AEs”, the “DSN” value [4, 11] was 0.46 days and the “Grade 4 Incidence (%)” value [4, 11] was 23%. The “DSN” value [4, 12] was 0.43 days, the “Grade 4 Incidence (%)” value [4, 12] was 21% and the “DSN” value [4, 13] was 0.38 days. For the same molecule, the “Grade 4 Incidence (%)” value [4, 13] was 15%, the “neutrophil count through time (FIG. 1)” value [4] was “started to rise again on day 10” and the “treatment of neutropenia induced by chemotherapeutic agent” value ([4]; human, in vivo) was “effective in treating neutropenia”. The “Grade 3 transient hypertension, patients” value ([5]; 20 mg/m^2 plinabulin) was 5%, the “Grade 3 transient hypertension, patients” value ([5]; 30 mg/m^2 plinabulin) was 20% and the “Bone Pain (% of patients)” value ([5]; Plinabulin, Table 1) was under 4%. The “Hospitalization (% of patients)” value ([5]; Plinabulin, Table 1) was 6%, the “Bone pain, patients reporting” value ([5]; patients receiving plinabulin) was 4% and the “changes in hematology or chemistry laboratory parameters” value ([5]; plinabulin monotherapy, solid tumor patients, no chemotherapy) was “did not experience any clinically significant deleterious changes”.

In the case of CC(=O)O[C@@]12CO[C@@H]1C[C@H](O)[C@@]1(C)C(=O)[C@H](O)C3=C(C)[C@@H](OC(=O)[C@H](O)[C@@H](NC(=O)OC(C)(C)C)c4ccccc4)C[C@@](O)([C@@H](OC(=O)c4ccccc4)[C@H]21)C3(C)C [docetaxel], the “proportion of patients with Grade 4 neutropenia” value [1] is listed as 33.3%, the FN percentage ([6]; 75 mg/m^2 docetaxel) is listed as “about 12.7%” and the “frequency of FN” value ([6]; Cycle 1, docetaxel 100 mg/m^2 without G-CSF) is listed as 11%. For the same molecule, the “frequency of FN” value ([6]; over all cycles, docetaxel 60 mg/m^2 without G-CSF) was 19.8%, the “frequency of FN” value ([6]; over all cycles, docetaxel 100 mg/m^2 without G-CSF) was 17% and the “increase of docetaxel exposure” value (CYP3A4) was “approximately 2 fold”. The “estimated median DSN” value [7] was 4 to 5 days and the “calculated mean DSN” value [8] was 1.076 days.

B1: Neulasta: pegfilgrastim (Neulasta®), a granulocyte colony-stimulating factor (G-CSF) compound (protein, chains of the INN, looked up)
chain: TPLGPASSLPQSFLLKCLEQVRKIQGDGAALQEKLCATYKLCHPEELVLLGHSLGIPWAPLSSCPSQALQLAGCLSQLHSGLFLYQGLLQALEGISPELGPTLDTLQLDVADFATTIWQQMEELGMAPALQPTQGAMPAFASAFQRRAGGVLVASHLQSFLEVSYRVLRHLAQP
For B1, the “bone pain, patients” value [9] is given as 31%, the “pain in an extremity, patients” value [9] is given as 9% and the “DSN” value [4, 14] is given as 0.14 days. The “Grade 4 Incidence (%)” value [4, 14] was 14% and the “neutrophil count through time (FIG. 1)” value [4] was “had an initial increase and then began to drop after 10 days”.

B2: G-CSF: Granulocyte-colony stimulating factor; G-CSF compounds include filgrastim and pegfilgrastim (protein, UniProt P09919 31-207, looked up)
Granulocyte …: TPLGPASSLPQSFLLKCLEQVRKIQGDGAALQEKLVSECATYKLCHPEELVLLGHSLGIPWAPLSSCPSQALQLAGCLSQLHSGLFLYQGLLQALEGISPELGPTLDTLQLDVADFATTIWQQMEELGMAPALQPTQGAMPAFASAFQRRAGGVLVASHLQSFLEVSYRVLRHLAQP
In the case of B2, the “Bone Pain (% of patients)” value [10] is listed as over 20%, the “Hospitalization (% of patients)” value [10] is listed as 20% and the “mean DSN” value ([6]; G-CSF treatment with TAC chemotherapy, 95% CI: 1.07-1.69) is listed as 1.4 days.

From patent publication US12458638B2, “Method of stimulating neutrophil survival and reducing neutropenia” (BEYONDSPRING PHARMACEUTICALS, INC., priority 2017, dated 2025)
